Experimental data reported in PubChem BioAssay (NCI).
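Five concentrations, 48 hours, 96-well plates. Here, GI50 denotes the concentration required for 50% inhibition of growth. TGI is the concentration that stops growth completely.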

Key:
Assay in all cases: NCI-60 cell line screen, 48 h
[1] = system: NCI-H460 lung
[2] = system: K-562 leukemia
[3] = system: BT-549 breast
[4] = system: NCI/ADR-RES ovarian
[5] = system: MDA-MB-231 breast
[6] = system: HS 578T breast
[7] = system: SNB-75 CNS
[8] = system: UO-31 renal
[9] = system: OVCAR-3 ovarian
[10] = system: MDA-MB-435
[11] = system: RXF 393 renal
[12] = system: OVCAR-8 ovarian
[13] = system: LOX IMVI melanoma
[14] = system: HCT-15 colon
[15] = system: SK-MEL-5 melanoma
[16] = system: A549 NSCLC
[17] = system: SF-295 CNS
[18] = system: HOP-62 NSCLC
[19] = system: UACC-62 melanoma
[20] = system: RPMI-8226 leukemia
[21] = system: HCT-116 colon
[22] = system: SN12C renal
[23] = system: MCF7 breast
[24] = system: UACC-257 melanoma
[25] = system: 786-0 renal
[26] = system: PC-3 prostate
[27] = system: OVCAR-5 ovarian
[28] = system: CAKI-1 renal
[29] = system: SK-MEL-2 melanoma
[30] = system: DU-145 prostate
[31] = system: SNB-19 CNS
[32] = system: A498 renal
[33] = system: U251 CNS
[34] = system: SK-MEL-28 melanoma
[35] = system: SF-268 CNS
[36] = system: SK-OV-3 ovarian
[37] = system: SW-620 colon
[38] = system: HL-60(TB) leukemia
[39] = system: HOP-92 NSCLC
[40] = system: CCRF-CEM leukemia
[41] = system: MOLT-4 leukemia
[42] = system: OVCAR-4 ovarian
[43] = system: ACHN renal
[44] = system: KM12 colon
[45] = system: HCC-2998 colon
[46] = system: M14 melanoma
[47] = system: SF-539 CNS
[48] = system: SR leukemia
[49] = system: NCI-H522 lung
[50] = system: MALME-3M melanoma
[51] = system: NCI-H23 lung
[52] = system: TK-10 renal
[53] = system: IGROV1 ovarian
[54] = system: HT29 colon
[55] = system: T-47D breast
[56] = system: COLO 205 colon

CCN(Cc1ccc(F)c(F)c1)c1ccc(CO)c(Cl)c1
GI50 [1]: 0.253 µM | TGI [1]: 10.7 µM | GI50 [2]: 1.37 µM | TGI [2]: 21.5 µM | GI50 [3]: 11.3 µM | TGI [3]: 25 µM | GI50 [4]: 11.4 µM | TGI [4]: 27.4 µM | GI50 [5]: 12.8 µM | TGI [5]: 26.6 µM | GI50 [6]: 12.4 µM | TGI [6]: 40 µM | GI50 [7]: 2.99 µM | TGI [7]: 19.5 µM | GI50 [8]: 2.7 µM | TGI [8]: 19.2 µM | GI50 [9]: 0.395 µM | TGI [9]: 2.25 µM | GI50 [10]: 17.9 µM | TGI [10]: 37.6 µM | GI50 [11]: 2.73 µM | TGI [11]: 15.9 µM | GI50 [12]: 11.9 µM | TGI [12]: 27.9 µM | GI50 [13]: 11.8 µM | TGI [13]: 25.7 µM | GI50 [14]: 6.63 µM | TGI [14]: 25 µM | GI50 [15]: 5.85 µM | TGI [15]: 20.3 µM | GI50 [16]: 1.89 µM | TGI [16]: 19.1 µM | GI50 [17]: 0.51 µM | TGI [17]: 12.1 µM | GI50 [18]: 1.71 µM | TGI [18]: 17.4 µM | GI50 [19]: 0.12 µM | TGI [19]: 0.919 µM | GI50 [20]: 2.44 µM | TGI [20]: 28.9 µM | GI50 [21]: 0.0911 µM | TGI [21]: 11.4 µM | GI50 [22]: 11 µM | TGI [22]: 23.9 µM | GI50 [23]: 0.195 µM | TGI [23]: 12.3 µM | GI50 [24]: 0.138 µM | TGI [24]: 0.432 µM | GI50 [25]: 5.44 µM | TGI [25]: 22.9 µM | GI50 [26]: 12.3 µM | TGI [26]: 27.4 µM | GI50 [27]: 0.0592 µM | TGI [27]: 0.306 µM | GI50 [28]: 3.92 µM | TGI [28]: 27.5 µM | GI50 [29]: 4.08 µM | TGI [29]: 19.5 µM | GI50 [30]: 14.8 µM | TGI [30]: 38.2 µM | GI50 [31]: 12.6 µM | TGI [31]: 27.8 µM | GI50 [32]: 0.0353 µM | TGI [32]: 0.153 µM | GI50 [33]: 0.867 µM | TGI [33]: 15.1 µM | GI50 [34]: 12.4 µM | TGI [34]: 25.1 µM | GI50 [35]: 15 µM | TGI [35]: 32.4 µM | GI50 [36]: 5.94 µM | TGI [36]: 19.3 µM | GI50 [37]: 0.753 µM | TGI [37]: 21 µM | GI50 [38]: 5.42 µM | TGI [38]: 29.3 µM | GI50 [39]: 0.835 µM | TGI [39]: 12.2 µM | GI50 [40]: 15.1 µM | TGI [40]: 47 µM | GI50 [41]: 16.8 µM | TGI [41]: 47.6 µM | GI50 [42]: 0.18 µM | TGI [42]: 1.46 µM | GI50 [43]: 9.77 µM | TGI [43]: 22.8 µM | GI50 [44]: 13.9 µM | TGI [44]: 28.4 µM | GI50 [45]: 5.59 µM | TGI [45]: 21.6 µM | GI50 [46]: 14 µM | TGI [46]: 30.2 µM | GI50 [47]: 13.7 µM | TGI [47]: 27.3 µM | GI50 [48]: 20.2 µM | TGI [48]: 52.5 µM | GI50 [49]: 13.2 µM | TGI [49]: 30.2 µM | GI50 [50]: 17.2 µM | TGI [50]: 33.3 µM | GI50 [51]: 6.7 µM | TGI [51]: 27.1 µM | GI50 [52]: 0.102 µM | TGI [52]: 0.303 µM | GI50 [53]: 0.098 µM | TGI [53]: 0.477 µM | GI50 [54]: 4.52 µM | TGI [54]: 19.1 µM | GI50 [55]: 0.0977 µM | TGI [55]: 0.667 µM | GI50 [56]: 2.32 µM | TGI [56]: 7.48 µM
